In patent EP4563573A1, “COMPOUND, AND PREPARATION METHOD THEREFOR AND USE THEREOF IN PREPARATION OF SEH INHIBITOR AND PPARS AGONIST” (Shenyang Pharmaceutical University, priority 2023, dated 2024):
Read-outs that look alike come from different tables or passages of the source.

What was measured:
[1] = molecular target: T1, recombinant human sEH (HsEH) (Homo sapiens, UniProt P34913)
T1 sequence (P34913 1-555): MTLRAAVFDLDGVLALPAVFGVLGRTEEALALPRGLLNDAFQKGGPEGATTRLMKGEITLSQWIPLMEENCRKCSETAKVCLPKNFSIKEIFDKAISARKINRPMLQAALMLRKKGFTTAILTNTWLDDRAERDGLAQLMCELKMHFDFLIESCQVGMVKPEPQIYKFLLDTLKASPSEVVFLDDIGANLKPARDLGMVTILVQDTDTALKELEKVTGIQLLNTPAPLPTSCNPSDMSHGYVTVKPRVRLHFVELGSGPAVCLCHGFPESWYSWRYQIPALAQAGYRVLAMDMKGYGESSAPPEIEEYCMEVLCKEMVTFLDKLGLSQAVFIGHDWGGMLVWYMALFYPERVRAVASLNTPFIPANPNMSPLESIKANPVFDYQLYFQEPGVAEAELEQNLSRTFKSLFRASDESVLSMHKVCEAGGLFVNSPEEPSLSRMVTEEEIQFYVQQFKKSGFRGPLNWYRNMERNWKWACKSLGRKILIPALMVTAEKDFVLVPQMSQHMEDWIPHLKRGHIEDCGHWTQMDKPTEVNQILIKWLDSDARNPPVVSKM
Procedure: (§1) Detection principle: a specific substrate, (3-phenyl-oxy)-acetic acid cyano-(6-methoxy-naphthalen-2-yl) methyl ester, namely PHOME, is non-fluorescent but can be hydrolyzed under the action of sEH enzyme to generate a product 6-methoxy-2-naphthaldehyde. […] Based on the above principle, the inhibition rates of samples with different concentrations were calculated compared with the positive control group. The IC50 value of the compound was calculated based on the inhibition rate and concentration using SPSS 20 software.
(§2) PHOME solution: 0.79 mg PHOME was dissolved in 106 µL DMSO to obtain a 20 mM PHOME solution, which was diluted to 1/3 mM with Tris-HCl buffer when used.
(§3) sEH solution: sEH (5 mg/mL) stock solution was stored in a -80°C refrigerator and diluted to 4 µg/mL with 25 mM Tris-HCl buffer when used.
(§4) A sample powder to be tested was dissolved in DMSO to a 20 mM solution, stored in a - 20°C refrigerator for later use, and diluted with Tris-HCl buffer to the corresponding concentration when used.
(§5) Experimental design: solvent group, 100% activity group (A), inhibitor group (B), positive control group (C), as shown in Table 1.
(§6) Three replicate wells were set for each sample, and the average of the three replicate wells was the fluorescence value (F) of the compound to be tested. […] The IC50 value of the compound was calculated based on the inhibition rate and concentration using SPSS 20 software.
(§7) The activity of the compounds was evaluated using a biochemical method with [cyano-(6-methoxynaphthalen-2-yl)methyl] 2-(3-phenyloxiran-2-yl)acetate (PHOME) as a substrate using recombinant human sEH (HsEH) and murine sEH (MsEH).

murine sEH (MsEH) [2] = molecular target: T2, murine sEH (MsEH) (Mus musculus, UniProt P34914); experiment: biochemical
T2 sequence (P34914 1-554): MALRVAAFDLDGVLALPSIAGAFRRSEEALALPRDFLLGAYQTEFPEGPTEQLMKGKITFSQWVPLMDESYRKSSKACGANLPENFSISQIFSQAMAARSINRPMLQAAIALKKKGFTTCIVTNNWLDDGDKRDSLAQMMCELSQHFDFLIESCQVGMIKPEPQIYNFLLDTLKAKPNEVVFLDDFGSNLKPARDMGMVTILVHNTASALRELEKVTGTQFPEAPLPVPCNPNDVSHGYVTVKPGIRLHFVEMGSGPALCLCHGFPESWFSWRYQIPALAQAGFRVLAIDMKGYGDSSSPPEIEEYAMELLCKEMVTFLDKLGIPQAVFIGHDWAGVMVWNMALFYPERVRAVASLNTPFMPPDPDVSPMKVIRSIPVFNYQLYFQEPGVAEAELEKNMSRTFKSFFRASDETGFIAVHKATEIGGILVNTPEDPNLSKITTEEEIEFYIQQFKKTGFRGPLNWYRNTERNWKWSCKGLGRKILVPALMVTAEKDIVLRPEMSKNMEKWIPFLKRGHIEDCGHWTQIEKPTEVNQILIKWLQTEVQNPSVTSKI
Procedure: as §1, §2, §3, §4, §5, §6, §7

PPARγ = molecular target: T3, PPARγ (Homo sapiens, UniProt P37231); experiment: PPARγ agonist activity test (luciferase reporter gene); type: cell-based; conditions: for PPARγ (compared with Rosiglitazone, %): relative to Rosiglitazone
T3 sequence (P37231 204-505): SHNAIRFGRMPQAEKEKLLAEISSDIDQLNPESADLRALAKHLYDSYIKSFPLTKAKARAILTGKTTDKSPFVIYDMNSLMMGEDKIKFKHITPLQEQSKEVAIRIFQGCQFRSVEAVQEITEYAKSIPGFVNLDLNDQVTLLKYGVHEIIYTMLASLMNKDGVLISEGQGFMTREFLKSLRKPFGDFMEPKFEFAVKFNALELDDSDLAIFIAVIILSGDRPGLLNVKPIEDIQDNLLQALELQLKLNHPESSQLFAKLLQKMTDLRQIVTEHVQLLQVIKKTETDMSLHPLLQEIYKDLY
Excerpt: • 1. PPARγ agonist activity test Detection principle: when pM-hPPAR binds to the appropriate ligand, and is activated and binds to the GAL4DNA binding site in the plasmid pB4-RES-tk-luc, thereby initiating the expression of the downstream luciferase reporter gene. The amount of luciferase is detected to determine whether the compound to be tested is a PPAR agonist. • 2.

murine sEH (MsEH) [3] = molecular target: T2, murine sEH (MsEH); conditions: read-out: MsEH IC50, PHOME substrate
Procedure: as §1, §2, §3, §4, §5, §6, §7

[4] = Pharmacokinetics after intravenous and oral administration; conditions: rats, i.v. 10 mg/kg
Procedure: Blood levels were measured within 8 hours after oral administration. […] Table 7 PK of SP-B07 after intravenous and oral administration in rats (n=3)

LPS-induced sepsis model = experiment: LPS-induced sepsis model; type: in vivo, Male C57BL/6 mice; conditions: LPS 25 mg/kg i.p., administration 4 h after modeling, twice at 8 h interval, n=7
Procedure: The drug was administered twice, with an interval of 8 h between administrations.

[5] = read-out: HsEH IC50, recombinant human sEH, PHOME substrate

SMILES: CC12CC3CC(C)(C1)CC(NC(=O)N[C@H]1CC[C@H](Oc4ccc(CC5SC(=O)NC5=O)cc4)CC1)(C3)C2 (stereo partly drawn) [SP-A01]
- IC50 [1]: 0.55 nM
- IC50 (murine sEH (MsEH) [2]): 0.54 nM
- EC50 (PPARγ): 6770 nM
- PPARγ (compared with Rosiglitazone, %) (PPARγ): 34.5%

SMILES: CC12CC3CC(C)(C1)CC(NC(=O)N1CCC(Oc4ccc(CC5SC(=O)NC5=O)cc4)CC1)(C3)C2 (stereo not drawn) [SP-A02]
- IC50 [1]: 83.5 nM
- IC50 (murine sEH (MsEH) [2]): 8.3 nM
- PPARγ (compared with Rosiglitazone, %) (PPARγ): 25.2%

SMILES: O=C1NC(=O)C(Cc2ccc(OC3CCN(C(=O)Nc4ccc(OC(F)(F)F)cc4)CC3)cc2)S1 (stereo not drawn) [SP-A05]
- IC50 [1, 5]: 0.53 nM
- PPARγ (compared with Rosiglitazone, %) (PPARγ): 14.3%
- IC50 (murine sEH (MsEH) [3]): 0.43 nM

SMILES: O=C1NC(=O)C(Cc2ccc(OC3CCN(C(=O)Nc4ccc(OC(F)(F)F)c(F)c4)CC3)cc2)S1 (stereo not drawn) [SP-A06]
- IC50 [1, 5]: 1.3 nM
- PPARγ (compared with Rosiglitazone, %) (PPARγ): 28.4%
- IC50 (murine sEH (MsEH) [3]): 0.73 nM

SMILES: O=C(Nc1ccc(OC(F)(F)F)c(F)c1)N[C@H]1CC[C@H](Oc2ccc(CC3SC(=O)NC3=O)cc2)CC1 (stereo partly drawn) [SP-A07]
- IC50 [1]: 0.07 nM
- IC50 (murine sEH (MsEH) [2]): 0.67 nM
- EC50 (PPARγ): 7750 nM
- PPARγ (compared with Rosiglitazone, %) (PPARγ): 21.1%

SMILES: CC12CC3CC(C)(C1)CC(NC(=O)N1CCC(Oc4ccc(/C=C5\SC(=O)NC5=O)cc4)CC1)(C3)C2 [SP-B02]
- IC50 [1]: 19.9 nM
- IC50 (murine sEH (MsEH) [2]): 23.4 nM
- PPARγ (compared with Rosiglitazone, %) (PPARγ): 14.6%

SMILES: CC12CC3CC(C)(C1)CC(NC(=O)N1CCC(Oc4ccc(/C=C5\NC(=O)NC5=O)cc4)CC1)(C3)C2 [SP-B03, N-[(1r,3R,5S,7r)-3,5-dimethyladamantan-1-yl]-4-{4-[(Z)-(2,5-dioxyimidazolin-4-ylidene)methyl]phenoxy}piperidin-1-carboxamide]
- IC50 [1]: 121 nM
- IC50 (murine sEH (MsEH) [2]): 135 nM
- PPARγ (compared with Rosiglitazone, %) (PPARγ): 10.2%

SMILES: O=C1NC(=O)/C(=C/c2ccc(OC3CCN(C(=O)Nc4ccc(OC(F)(F)F)cc4)CC3)cc2)N1 [SP-B04]
- IC50 [1]: 156 nM
- IC50 (murine sEH (MsEH) [2]): 108 nM
- PPARγ (compared with Rosiglitazone, %) (PPARγ): 9.6%

SMILES: O=C1NC(=O)/C(=C/c2ccc(OC3CCN(C(=O)Nc4ccc(OC(F)(F)F)cc4)CC3)cc2)S1 [SP-B05, (Z)-4-{4-[(2,4-dioxothiazolidin-5-ylidene)methyl]phenoxy}-N-[4-(trifluoromethoxy)phenyl]piperidin-1-carboxamide]
- PPARγ (compared with Rosiglitazone, %) (PPARγ): 17.3%

SMILES: O=C(Nc1ccc(OC(F)(F)F)c(F)c1)N[C@H]1CC[C@H](Oc2ccc(/C=C3\SC(=O)NC3=O)cc2)CC1 [SP-B06]
- IC50 [1]: 0.69 nM
- IC50 (murine sEH (MsEH) [2]): 1.1 nM
- PPARγ (compared with Rosiglitazone, %) (PPARγ): 19.3%

SMILES: CC(=O)Oc1ccc(O[C@H]2CC[C@H](NC(=O)Nc3ccc(OC(F)(F)F)c(F)c3)CC2)cc1 [SP-C01, phenyl 4-(((1r,4r)-4-(3-(3-fluoro-4-(trifluoromethoxy)phenyl)ureido)cyclohexyl)oxy)acetate]
- time at which maximum concentration was reached after intravenous injection [4]: 2 min

SMILES: NC(=O)c1ccc(O[C@H]2CC[C@H](NC(=O)Nc3ccc(OC(F)(F)F)cc3)CC2)cc1 [SP-C01i]
- IC50 [1]: 0.3 nM
- IC50 (murine sEH (MsEH) [2]): 0.7 nM
- PPARγ (compared with Rosiglitazone, %) (PPARγ): 12.97%

SMILES: CC(=O)Nc1ccc(O[C@H]2CC[C@H](NC(=O)Nc3ccc(OC(F)(F)F)c(F)c3)CC2)cc1 [SP-C01k, N-(4-(((1r,4r)-4-(3-(3-fluoro-4-(trifluoromethoxy)phenyl)ureido)cyclohexyl)oxy)phenyl)acetamide]
- PPARγ (compared with Rosiglitazone, %) (PPARγ): 0.3%

SMILES: CCC(=O)Nc1ccc(OC2CCCC(NC(=O)NC34CC5CC(C)(CC(C)(C5)C3)C4)C2)cc1 (stereo not drawn) [SP-C01m]
- IC50 [1, 5]: 0.9 nM
- PPARγ (compared with Rosiglitazone, %) (PPARγ): 0.9%
- IC50 (murine sEH (MsEH) [3]): 6.7 nM

SMILES: CCC(C)C(=O)Nc1ccc(OC2CCCC(NC(=O)NC34CC5CC(C)(CC(C)(C5)C3)C4)C2)cc1 (stereo not drawn) [SP-C01n]
- IC50 [1, 5]: 0.7 nM
- PPARγ (compared with Rosiglitazone, %) (PPARγ): 0.7%
- IC50 (murine sEH (MsEH) [3]): 1.3 nM

SMILES: CCOC(=O)CC(=O)Nc1ccc(O[C@H]2CC[C@H](NC(=O)Nc3ccc(OC(F)(F)F)c(F)c3)CC2)cc1 [SP-C01s]
- IC50 [1]: 0.3 nM
- IC50 (murine sEH (MsEH) [2]): 0.6 nM
- PPARγ (compared with Rosiglitazone, %) (PPARγ): 0.3%

SMILES: COC(=O)CN1C(=O)S/C(=C\c2ccc(O[C@H]3CC[C@H](NC(=O)Nc4ccc(OC(F)(F)F)cc4)CC3)cc2)C1=O [SP-D01, methyl 2-(2,4-dioxo-5-((Z)-4-(((1r,4r)-4-(3-(4-(trifluoromethoxy)phenyl)ureido)cyclohexyl)oxy)benzylidene)thiazolidin-3-yl)acetate]
- IC50 [1, 5]: 1.1 nM
- PPARγ (compared with Rosiglitazone, %) (PPARγ): 1.1%
- IC50 (murine sEH (MsEH) [3]): 2.4 nM

SMILES: COC(=O)CN1C(=O)S/C(=C\c2ccc(O[C@H]3CC[C@H](NC(=O)NC45CC6C[C@@](C)(C4)C[C@](C)(C6)C5)CC3)cc2)C1=O [SP-D04, methyl 2-(5-((Z)-4-(((1R,4r)-4-(3-((1R,3R,5S,7R)-3,5-dimethyladamantan-1-yl)ureido)cyclohexyl)oxy)benzylidene)-2,4-dioxythiazolin-3-yl)acetate]
- IC50 [1, 5]: 1.2 nM
- PPARγ (compared with Rosiglitazone, %) (PPARγ): 1.2%
- IC50 (murine sEH (MsEH) [3]): 10.1 nM

SMILES: C[C@@H]1C[C@H]2[C@@H]3CCC4=CC(=O)C=C[C@]4(C)[C@@]3(F)[C@@H](O)C[C@]2(C)[C@@]1(O)C(=O)CO [dexamethasone, reference compound]
- increase of the survival rate (LPS-induced sepsis model): 57.1%
